“And” between values parts separate entries of the source, which are not always exact repeats. Equal entries are not always repeated. Structures can show the parent of a compound that is named as a salt. Where two headings read alike, the source gives them in different places.
Columns and labels:
gastric acid secretion = system: gastric acid secretion; design: method as in earlier work; conditions: cited from earlier work
[1] = Safety: treatment-emergent adverse events, vital signs and laboratory tests in the phase 1 study; format: in vivo, human
Method: The safety analysis population consisted of all randomized subjects who received quizartinib or at least one dose of lansoprazole. Safety was assessed with physical examinations, vital signs, AE evaluations, 12-lead electrocardiograms (ECGs), and clinical laboratory tests (hematology, chemistry, and urinalysis). AEs were evaluated during the study according to the Medical Dictionary for Regulatory Activities version 17.1 and assessed for severity and relation to study drugs. Laboratory results were summarized based on National Cancer Institute Common Terminology Criteria for Adverse Events version 4.03.

[2] = Phase 1 drug–drug interaction study: plasma PK of quizartinib, AC886 and quizartinib + AC886 after a single 30-mg quizartinib tablet alone or with lansoprazole; format: in vivo, human; conditions: for Vd/F: read-out: Vz/F (CV%), geometric mean; for CL/F (CV%), geometric mean: quizartinib
Method: The tolerability and safety of quizartinib administered alone and in combination with lansoprazole were also assessed. The study was conducted in compliance with the Declaration of Helsinki and the International Conference on Harmonisation (ICH)/Good Clinical Practice as well as all applicable state, local, and federal regulations. The study protocol, amendments, and informed consent forms were reviewed and approved by the institutional review board. All subjects provided written informed consent before any study-related procedure took place.
Subjects were randomized into two groups: lansoprazole and quizartinib (lansoprazole + quizartinib; test group) and quizartinib alone (reference group). On days 1–5, subjects in the test group were administered 60-mg lansoprazole (2 × 30 mg oral delayed-released capsule) once daily in the morning before food. […] All study drugs were taken with approximately 240 mL of water.
Plasma concentrations were determined by BASi (West Lafayette, IN, USA) using a validated analytical method.
Samples were injected into an LC–MS/MS system (LC: Nexera System, Shimadzu Scientific Instruments, Columbia, MD, USA; MS: API 5500™, SCIEX, Framingham, MA, USA) using a PFP column (Phenomenex/Kinetex, Torrance, CA, USA) with a gradient ammonium formate/formic acid/acetonitrile/water mobile phase. […] For AC886 at the LLOQ, precision was 6.0% CV and accuracy was 0.2% bias across 14 runs; accuracy ranged from −7.9 to 10.6% bias within runs. For AC886 at the upper limit of quantitation, precision was 2.9% CV and accuracy was −1.4% bias across 14 runs; accuracy ranged from −6.4 to 4.6% bias within runs.
A sample size of 25 subjects per group was determined to yield a ≤ 10% relative standard error of the mean, based on the observed intersubject coefficient of variation (CV%) of approximately 60% for PK parameters in a previous drug–drug interaction study in healthy volunteers (data on file, Daiichi Sankyo, Inc., Basking Ridge, NJ, USA). Up to 32 subjects/group were planned to account for possible premature withdrawal. Descriptive statistics were used to summarize plasma concentrations and PK parameters of the PK analysis population. Safety parameters were summarized in the safety analysis population using descriptive statistics. All descriptive statistics were calculated using SAS® software version 9.3 (SAS Institute Inc., Cary, NC, USA). […] PK parameters were natural logarithm (ln)-transformed prior to analyses. The ln-transformed PK results were back-transformed by exponentiation to obtain the geometric least squares mean (LSM) for each treatment and calculate geometric LSM ratios for pairwise comparisons.

[3] = by treatment group
[4] = cited from earlier work
[5] = In vitro solubility assessment; format: physicochemical
[6] = all patients, quizartinib with/without lansoprazole, N = 63
[7] = all subjects, quizartinib with or without lansoprazole
[8] = by treatment group, safety population
[9] = healthy subjects, single 30-mg quizartinib
[10] = quizartinib in plasma, single 30-mg quizartinib alone, n = 30
[11] = day 5, up to 8 h after quizartinib

## Cc1c(OCC(F)(F)F)ccnc1C[S+]([O-])c1nc2ccccc2[nH]1 (centres unmarked) [Lansoprazole, lansoprazole]
Gastric acid secretion
  Duration of inhibitory effect on gastric acid secretion: over 24 h
  Elimination half-life: less than 2 h
Gastric acid secretion; lansoprazole 30 mg once daily for 5 days, baseline 2.1
  Mean 24-h intragastric pH: 4.9

## CC(C)(C)c1cc(NC(=O)Nc2ccc(-c3cn4c(n3)sc3cc(OCCN5CCOCC5)ccc34)cc2)no1 [Quizartinib, quizartinib]
[1]; [6]
  TEAE: Back pain: 2 (3.2) n (%)
  TEAE: Constipation: 2 (3.2) n (%)
  TEAE: Dermatitis: 1 (1.6) n (%)
  TEAE: Diarrhea: 1 (1.6) n (%)
  TEAE: Dizziness: 1 (1.6) n (%)
  TEAE: Fatigue: 2 (3.2) n (%)
  TEAE: Headache: 3 (4.8) n (%)
  TEAE: Hypoacusis: 1 (1.6) n (%)
  TEAE: Hypoesthesia: 1 (1.6) n (%)
  TEAE: Muscle tightness: 2 (3.2) n (%)
  TEAE: Musculoskeletal pain: 1 (1.6) n (%)
  TEAE: Musculoskeletal stiffness: 1 (1.6) n (%)
  TEAE: Nasal congestion: 1 (1.6) n (%)
  TEAE: Nausea: 2 (3.2) n (%)
  TEAE: Phlebotomy: 1 (1.6) n (%)
  TEAE: Sneezing: 1 (1.6) n (%)
  TEAE: Throat irritation: 1 (1.6) n (%)
  TEAE: Upper respiratory tract infection: 5 (7.9) n (%)
  TEAE: Vessel puncture site pain: 1 (1.6) n (%)
[1]; [7]
  Abnormalities in vital signs, hematology, or clinical chemistry: No significant abnormalities
  Severe or serious TEAEs: no severe or serious TEAEs
  Subjects with TEAEs of mild severity among the 20 subjects who experienced a TEAE: 95%
  Subjects with at least one quizartinib-related TEAE (nausea, diarrhea, dizziness, headache, fatigue): Three
[1]; all subjects, quizartinib with or without lansoprazole, N = 63
  Subjects with at least one treatment-emergent AE (TEAE) following quizartinib treatment on day 5: 31.7%
[1]; [8]
  TEAE: Back pain: 1 (3.3) n (%)
  TEAE: Constipation: 1 (3.3) n (%)
  TEAE: Dermatitis: 0 n (%)
  TEAE: Diarrhea: 1 (3.3) n (%)
  TEAE: Dizziness: 0 n (%)
  TEAE: Fatigue: 1 (3.3) n (%)
  TEAE: Headache: 3 (10.0) n (%)
  TEAE: Hypoacusis: 0 n (%)
  TEAE: Hypoesthesia: 0 n (%)
  TEAE: Muscle tightness: 2 (6.7) n (%)
  TEAE: Musculoskeletal pain: 1 (3.3) n (%)
  TEAE: Musculoskeletal stiffness: 1 (3.3) n (%)
  TEAE: Nasal congestion: 1 (3.3) n (%)
  TEAE: Nausea: 1 (3.3) n (%)
  TEAE: Phlebotomy: 0 n (%)
  TEAE: Sneezing: 1 (3.3) n (%)
  TEAE: Throat irritation: 1 (3.3) n (%)
  TEAE: Upper respiratory tract infection: 2 (6.7) n (%)
  TEAE: Vessel puncture site pain: 0 n (%)
[1]; by treatment group, safety population, after database lock one event was found to be pre-existing
  TEAE: Dysmenorrhea: 1 (3.3) n (%)
[1]; by treatment group, quizartinib alone n = 30, lansoprazole + quizartinib n = 33
  Subjects with at least one treatment-emergent AE (TEAE) following quizartinib treatment on day 5: 30.0%
[1]; healthy subjects, with or without lansoprazole
  Overall safety and tolerability: generally safe and well tolerated
[2]; [9]
  Decrease in AUCinf (geometric LSM) for lansoprazole + quizartinib versus quizartinib alone: 4.7%
  Decrease in AUClast (geometric LSM) for lansoprazole + quizartinib versus quizartinib alone: 6.0%
  Decrease in Cmax (geometric LSM) for lansoprazole + quizartinib versus quizartinib alone: 13.9%
[2]; human, plasma, oral, 30 mg, quizartinib in plasma, quizartinib alone, n = 30, read-out: AUCinf, geometric LS mean (ANOVA)
  AUC(0-inf): 8660 ng·h/mL
[2]; human, plasma, oral, 30 mg, quizartinib in plasma, quizartinib alone, n = 30, read-out: AUClast, geometric LS mean (ANOVA)
  AUC(0-t): 8330 ng·h/mL
[2]; human, plasma, oral, 30 mg, quizartinib in plasma, single 30-mg quizartinib alone, n = 30, read-out: AUCinf (CV%), geometric mean
  AUC(0-inf): 8660 ng·h/mL
[2]; human, plasma, oral, 30 mg, quizartinib in plasma, single 30-mg quizartinib alone, n = 30, read-out: AUClast (CV%), geometric mean
  AUC(0-t): 8330 ng·h/mL
[2]; human, plasma, oral, 30 mg
  Vd/F: 431 L
[2]; human, plasma, oral, quizartinib in plasma, lansoprazole 60 mg once daily + single 30-mg quizartinib, n = 31, read-out: AUCinf (CV%), geometric mean
  AUC(0-inf): 8260 ng·h/mL
[2]; human, plasma, oral, quizartinib in plasma, lansoprazole 60 mg once daily + single 30-mg quizartinib, n = 32, read-out: AUClast (CV%), geometric mean
  AUC(0-t): 7830 ng·h/mL
[2]; human, plasma, oral, quizartinib in plasma, lansoprazole + quizartinib, n = 31, read-out: AUCinf, geometric LS mean (ANOVA)
  AUC(0-inf): 8260 ng·h/mL
[2]; human, plasma, oral, quizartinib in plasma, lansoprazole + quizartinib, n = 32, read-out: AUClast, geometric LS mean (ANOVA)
  AUC(0-t): 7830 ng·h/mL
[2]; human, plasma, oral, read-out: Mean T1/2 (SD), arithmetic mean (converted)
  half-life: 107 h
[2]; human, plasma, oral, read-out: Median Tmax (min, max)
  Tmax: 3.5 h
[2]; human, plasma, oral
  Vd/F: 479 L
[2]; quizartinib in plasma, healthy subjects, single 30-mg quizartinib tablet alone, fasted, n = 30
  Median Tmax (min, max): 4.0 (2.0, 8.0) h
[2]; quizartinib in plasma, quizartinib alone, n = 30
  Cmax, geometric LS mean (ANOVA): 104.8 ng/mL
[2]; [10]
  Cmax (CV%), geometric mean: 105 (16.3) ng/mL
  Mean T1/2 (SD), arithmetic mean: 102.2 (29.0) h
[2]; lansoprazole 60 mg once daily + single 30-mg quizartinib, n = 31
  CL/F (CV%), geometric mean: 3.2 L/h and 3.2 (46.4)^b L/h
[2]; single 30-mg quizartinib alone, n = 30
  CL/F (CV%), geometric mean: 3.1 L/h and 3.1 (37.4) L/h
[3]
  Subjects with maximum QTcF value > 480 ms: None
[3]; [11]
  Maximum QTcF change from baseline in most subjects: ≤ 30 ms
  Maximum QTcF value in most subjects: ≤ 450 ms
[4]; estimated in AML patients, ref data on file, Daiichi Sankyo Inc., Basking Ridge, NJ, USA
  half-life: 73 h
[4]; healthy subjects and patients with AML, range 2–8 h
  Time to maximum concentrations: 4 h

## CC(C)(C)c1cc(NC(=O)Nc2ccc(-c3cn4c(n3)sc3cc(OCCN5CCOCC5)ccc34)cc2)no1 [quizartinib dihydrochloride]
[5]
  pH dependence of solubility: pH dependent
[5]; at physiological pH in the intestine
  solubility: < 0.4 µg/mL

— publication PMC6768889 (Cancer Chemotherapy and Pharmacology, 2019)
